Experimental data reported in US20260008788A1, “AZA-FUSED RING COMPOUND, PREPARATION METHOD THEREFOR, AND USE THEREOF IN MEDICINE” (SUZHOU ARK BIOPHARMACEUTICAL CO., LTD., priority 2022, published 2026).

molecular target: T1, PDE4B2 (Homo sapiens, UniProt Q07343); test: Inhibitory effect on PDE4 enzyme (AMP-Glo Assay kit), PDE4B2; assay type: biochemical; details: cAMP substrate, 60 minutes at room temperature, AMP-Glo detection
T1 construct: purchased BPS bioscience 60042
Description: PDE4 enzyme can hydrolyze cAMP to produce AMP. The synthetic PDE4 enzyme inhibitor act together with PDE4 enzyme and the substrate cAMP for a certain period of time, and then the AMP-Glo™ Assay kit was used for detection. The detection is divided into two steps: first, converting the AMP produced in the reaction into ADP, and second, converting ADP into ATP. ATP binds to the reagent and emits […]. The fluorescence value is detected using an […]. IC50 value of the PDE4 enzyme inhibitor was calculated by plotting a graph with the […] values. The specific details are as follows:
The compound plate was centrifuged at 1000 rpm for 1 minute.
% Inhibition={1−(Average RLU of the compound−Average RLU of the positive control of the whole plate)/(Average RLU of the negative control of the whole plate−Average RLU of the positive control of the whole plate)}
The IC50 is calculated by fitting the % inhibition values and the logarithm of the compound concentration to a non-linear regression (dose response-variable slope) using Graphpad 8.0.

T1 sequence (Q07343 1-564 isoform Q07343-2): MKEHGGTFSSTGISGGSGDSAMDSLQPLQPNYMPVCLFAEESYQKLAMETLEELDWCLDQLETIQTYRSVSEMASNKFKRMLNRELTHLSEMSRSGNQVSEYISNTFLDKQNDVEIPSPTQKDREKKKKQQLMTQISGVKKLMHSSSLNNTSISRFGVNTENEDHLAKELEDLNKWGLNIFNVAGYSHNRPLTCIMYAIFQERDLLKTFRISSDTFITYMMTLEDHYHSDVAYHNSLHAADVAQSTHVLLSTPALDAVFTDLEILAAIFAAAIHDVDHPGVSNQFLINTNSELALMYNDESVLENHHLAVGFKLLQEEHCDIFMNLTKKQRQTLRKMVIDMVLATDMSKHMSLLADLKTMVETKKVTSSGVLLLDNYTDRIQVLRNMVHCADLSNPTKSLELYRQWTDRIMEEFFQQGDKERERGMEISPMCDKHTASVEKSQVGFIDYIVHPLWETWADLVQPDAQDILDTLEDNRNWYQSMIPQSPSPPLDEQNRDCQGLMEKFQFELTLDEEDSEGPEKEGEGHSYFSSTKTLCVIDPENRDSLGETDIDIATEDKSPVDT

Compound	IC50
[O-][S@+]1CCc2nc(N3CCc4c(cnn4-c4ccccc4)C3)nc(NC3(CO)CCC3)c21 [Example 12, (R)-4-((1-(hydroxymethyl)cyclobutyl)amino)-2-(1-phenyl-1,4,6,7-tetrahydro-5H-pyrazolo[4,3-c]pyridin-5-yl)-6,7-dihydrothieno[3,2-d]pyrimidine-5-oxide]	0.63 nM
[O-][S@+]1CCc2nc(N3CCc4oc(C5CCCCC5)nc4C3)nc(NC3(CO)CCC3)c21 [Example 5, (R)-2-(2-cyclohexyl-6,7-dihydrooxazolo[4,5-c]pyridin-5(4H)-yl)-4-((1-(hydroxymethyl)cyclobutyl)amino)-6,7-dihydrothieno[3,2-d]pyrimidine 5-oxide]	0.93 nM
[O-][S@+]1CCc2nc(N3CCc4cc(-c5ncccn5)ccc4C3)nc(NC34CC(CO)(C3)C4)c21 [Example 24, (R)-4-((3-(hydroxymethyl)bicyclo[1.1.1]pentan-1-yl)amino)-2-(6-(pyrimidin-2-yl)-3,4-dihydroisoquinolin-2(1H)-yl)-6,7-dihydrothieno[3,2-d]pyrimidine 5-oxide]	< 0.1 nM
Cc1cc(C(F)(F)F)c(CNc2nc(N3CCc4oc(-c5ccc(F)cc5)nc4C3)nc3c2[S@+]([O-])CC3)c(=O)[nH]1 [Example 17, (R)-3-(((2-(2-(4-fluorophenyl)-6,7-dihydrooxazolo[4,5-c]pyridin-5(4H)-yl)-5-oxido-6,7-dihydrothieno[3,2-d]pyrimidin-4-yl)amino)methyl)-6-methyl-4-(trifluoromethyl)pyridin-2(1H)-one]	8.9 nM
COc1nc(C)cc(C)c1CNc1nc(N2CCc3oc(-c4ccc(F)cc4)nc3C2)nc2c1[S@+]([O-])CC2 [Example 18, (R)-2-(2-(4-fluorophenyl)-6,7-dihydrooxazolo[4,5-c]pyridin-5(4H)-yl)-4-(((2-methoxy-4,6-dimethylpyridin-3-yl)methyl)amino)-6,7-dihydrothieno[3,2-d]pyrimidine 5-oxide]	0.5 nM
